Assay [1] deals with Bacteroides fragilis. Nature of the assay: Growth curve (O.D. 600 over time) in nutrient broth. The assay is classed as cell-based. The conditions noted are these: 1 mg/ml in nutrient broth, alone or with 1 mg/ml EDTA, 37° C., FIGS. 2, 4, 6. As for the experimental part: (§1) Growth Curves Since bacteria grow exponentially, it is useful to plot the logarithm of the relative population size [y=ln(NIN0)] against time. Frozen permanents of each strain were streaked for single colonies using nutrient agar plates warmed prior to use. Single bacterial cells were restreaked on a nutrient agar plate at 37° C. for 24 h to 72 h depending on strain. Cells of several well-grown colonies on the plate were added to 50 ml of nutrient broth with shaking at 37° C. until the culture reached the desired optical density. Ingredients of interest were slowly added while stirring at 37° C. […] Samples were taken at various time points and the optical density of the culture was obtained at 600 nm. All experiments were replicated twice.

The subject of assay [2] is E. coli. The assay is described as above. The settings on record: 1 mg/ml in nutrient broth, alone or with 1 mg/ml EDTA or citrate, 37° C., FIGS. 1, 3, 5. The assay is classed as cell-based. Here is the method:
as §1

The text below walks through data of patent US20130101634A1, “COMPOSITIONS AND METHODS FOR REDUCING MICROBIAL OVERGROWTH IN THE SMALL INTESTINES” (DEERLAND ENZYMES, INC., priority 2011, published 2013).

Consider nisin, for which the “cell growth (O.D. 600 as a function of time)” value in assay [1] was “cell growth is not totally eliminated and cell culture will recover”; in assay [2], “cell growth is not totally eliminated and cell culture will recover”.
As to lysozyme, the “cell growth (O.D. 600 as a function of time)” value in assay [1] was “cell growth is not totally eliminated and cell culture will recover”; in assay [2], “cell growth is not totally eliminated and cell culture will recover”.
